Data as given in patent publication US8101736B2, “Polynucleotides and polypeptide of human KV1.3, compositions comprising same and methods of using same” (GeneGrafts Ltd., priority 2005, dated 2012).
Read-outs that look alike come from different tables or passages of the source.

Experiments:
[1] = wild type, from Marom et al. 1995; cited from earlier work
[2] = system: NIH/3T3 fibroblasts cell line; test: Whole-cell patch clamp of transfected NIH/3T3 cells; type: cell-based, Mouse; details: stably transfected NIH/3T3 cells; for inactivation character of potassium current: FIG. 7 and FIG. 8; for potassium current amplitude: whole-cell voltage clamp, room temperature
Procedure: Mouse fibroblasts cell line (NIH/3T3, ATCC ACCESSION NO. CRL-6361):
(§1) Voltage clamp assay was used to test the expression and function of the over-expressed channels.
Selection was done using Neomycin sulfate (G418) antibiotic (Gibco Catalog No. 11811-031) which was added to the growth medium ([…]). Clones were isolated using cloning ring and cultured into 24 well plate (corning Catalog No. 3524). For expansion, confluent wells were transferred to six well plates and then to 100 mm culture dish (Corning Catalog No. 430167DMEM-complete+G418 10% FCS was thereafter replaced every 72 to 96 hours.
Total cell protein was extracted from the various clones using 300 μl cold RIPA buffer (with supplements; RIPA lysis buffer, 1× Santa Cruz Biotechnology, Catalog No. 24948) and screened by western blot analysis with rabbit anti-Kv1.3 antibody (CHEMICON, Catalog No. AB5178). Colonies that tested western blot positive were then analyzed by voltage clamp.
(§2) Patch clamp recordings—Voltage-clamp recordings were performed using the whole-cell patch clamp technique. All measurements were done at room temperature. Patch pipettes (2-4 MΩ) were prepared from glass capillary tubes (Jencons Catalog No. 687-055) using a double-stage puller (Narishige pp-830). Currents were recorded with an Axon Instruments amplifier (Axopatch 200), digitized by DigiData 1322A digitizer (Axon instruments). Data was analyzed using pCLAMP software (version 8.0). Bath solution for the whole-cell recordings contained (in mM): 140 NaCl, 3 KCl, 2 CaCl2, 2 MgCl2, 10 Glucose and 10 HEPES (pH 7.4). Pipette solution for the whole-cell recordings (in mM): 140 KCl, 10 Na2 ATP, 1 CaCl2, 1 MgCl2, 10 EGTA and 5 HEPES (pH 7.4). Currents were elicited by 200 ms pulses from holding potential of −80 mV to −90 mv and then to 110 mV in increments of 20 mV.

[3] = system: Human dermal fibroblasts; test: Whole-cell patch clamp of transfected human dermal fibroblasts; type: cell-based; details: for potassium current amplitude: 7-20 days after nucleoporation, 12 cells per construct; for character of potassium current: FIG. 9 and FIG. 10
Description: as §1
The protocol is using Collagenase type 1 (Worthington Biochemical Corp., Lakewood, N.J., cat. LS004196, lot.X4J7447) for extractions of cells from a tissue. Primary cultures were generated by seeding in flasks with growth Medium: DMEM+HEPES (ADCF) with phenol red (HyClone part no SH3A1534.01, Lot no ANM20173 custom made for biogenics, L.T.D). Medium was supplemented with 10% FBS defined (HyClone; Cat no: SH30072.03; Lot no: APD21173); ITS+1 liquid media supplement (sigma # I-2521); Gentamycin 50 μg ml (Beit ha'emek; cat no#03-035-1) and Amphotericin B 2.5 μg ml (Beit ha'emek; Catalog No. 03-029-1).
Five days prior to transfection, cells were seeded in 150 cm^2 flasks. Medium was changed every 3 days. Cells reached 90% confluence in the day of the transfection.
For expression of the wt and mutation constructs in human dermal fibroblasts, Amaxa Nucleofector (Amaxa biosystem) and Human Dermal Fibroblast (NHDF) Nucleofector kit (Catalog No. VPD-1001) were used. Nucleofection was done according to the protocol of the manufacturer. Cells from passage 1-5 were used. The expression was characterized using fluorescent microscopy and the patch clamp technique. Seven days after nucleofection patch clamp analysis were performed.
as §2

[4] = Transition rate of the channel from open to inactivation; details: H399W mutant

Molecule	transition rate from open to inactivation [1]	inactivation character of potassium current [2]	potassium current amplitude [2]	potassium current amplitude [3]	character of potassium current [3]	transition rate from open to inactivation [4]
wild type Kv1.3: wild type human Kv1.3 voltage-gated potassium channel (SEQ ID NO: 4, GenBank AAC31761, KCNA3)	0.0074	slowly inactivated	200-1500 pA	600-2500 pA	typical potassium	–
H399W: human Kv1.3 channel mutated to express tryptophan at position 399 instead of histidine (SEQ ID NO: 2), expressed from pIRES2-EGFP (protein, A recombinant polypeptide having the H399W mutation) MTVVPGDHLLEPEVADGGGAPPQGGCGGGGCDRYEPLPPSLPAAGEQDCCGERVVINISGLRFETQLKTLCQFPETLLGDPKRRMRYFDPLRNEYFFDRNRPSFDAILYYYQSGGRIRRPVNVPIDIFSEEIRFYQLGEEAMEKFREDEGFLREEERPLPRRDFQRQVWLLFEYPESSGPARGIAIVSVLVILISIVIFCLETLPEFRDEKDYPASTSQDSFEAAGNSTSGSRAGASSFSDPFFVVETLCIIWFSFELLVRFFACPSKATFSRNIMNLIDIVAIIPYFITLGTELAERQGNGQQAMSLAILRVIRLVRVFRIFKLSRHSKGLQILGQTLKASMRELGLLIFFLFIGVILFSSAVYFAEADDPTSGFSSIPDAFWWAVVTMTTVGNSYGDMWPVTIGGKIVGSLCAIAGVLTIALPVPVIVSNFNYFYHRETEGEEQSQYMHVGSCQHLSSSAEELRKARSNSTLSKSEYMVIEEGGMNHSAFPQTPFKTGNSTATCTTNN	–	fast inactivated	150-1800 pA	400-1200 pA	fast inactivated	0.025
